From patent EP4186488A1, “A TOPICAL COMPOSITION” (Unilever IP Holdings B.V., priority 2021, dated 2023)

test system: Human primary melanocytes; assay: melanin content assay (MCA); assay type: cell-based; conditions: 72 hours incubation with active(s), wt% of active(s) as listed per example, OD 405nm, untreated cells = 100% melanin content
Method: In-vitro studies on the effect of the combination of the actives on melanin inhibition using melanin content assay (MCA) was used. The method is described below. Human primary melanocytes were grown in melanocytes growth medium (MGM) with human melanocyte growth supplement. 500 µL/well (5X10^4 cells/well) of this solution was plated in a 24 wells plate and incubated in an incubator (Thermo Scientific, Model 3111) at 37°C with 5% CO2 atmosphere. After 24 hours of incubation, cell cultures were treated with the lead actives either dissolved in water or DMSO. The cells were again incubated for 72 hours in an incubator (Thermo Scientific, Model 3111; conditions: 5% CO2, at 37°C). Comparative vehicle controls of 0.1 % (v/v) DMSO or media control (for aqueous actives) were also set up simultaneously. At the end of the incubation period, cell viability was determined using the calcein method. After calcein fluorescence readings were obtained, drained the cells and added fresh 0.15 ml of 1N NaOH (in 10% DMSO) per well. Cells were lysed by resuspension and incubation (60 °C/1 hr.). Then, 0.12 ml of this lysate was transferred to a fresh […] plate and measured OD405nm in a TECAN M1000 plate reader (estimate of relative melanin content). The spectrophotometric OD at 405nm for untreated cells (No active) is considered as 100% melanin content, with respect to this, treatment (active) percentage is calculated.

SMILES	% melanin inhibition [%]
NC(=O)c1cccnc1 [B, Niacinamide]	7.4
NC(=O)c1cccnc1 [C, Niacinamide]	9.2
NC(=O)c1cccnc1 [D, Niacinamide]	6.1
CCCCCCC(O)CCCCCCCCCCC(=O)O (stereo not shown) [E, 12-hydroxystearic acid]	4.1
